From patent publication US12214058B2, “Imaging methods using deuterated compounds” (Genentech, Inc., priority 2014, dated 2025)
“And” between values parts separate entries of the source, which are not always exact repeats. Identical values can stand only once.

Key:
[1] = Dynamic microPET imaging in mice; type: in vivo, mice (C57BL/6)
Method: MicroPET Imaging The PET imaging was performed on Inveon PET/CT scanner (Siemens Medical Solutions USA Inc.). Animals anesthetized with sevoflurane were placed head-first, prone position on the scanner bed and dynamic 45 min scans were initiated. Approximately 3.7 MBq of ^18F-radiolabeled tracer in isotonic solution (100-130 μL) was administered as 60 second intravenous infusion via the tail vein. Body temperature was measured by a rectal probe and maintained with warm air flow at 37° C. Full-body iterative image reconstructions were obtained using maximum a posteriori algorithm (MAP, hyperparameter β 0.05) and corrected for signal attenuation using the tissue density obtained from CT. Projections were created with PMOD 3.305 (PMOD Technologies, Ltd., Zurich, Switzerland) and used to obtain quantitative activity levels in each organ of interest using region-of-interest analysis.

[2] = Microsomal stability assay, rhesus liver microsomes; type: in vitro ADME
Method: Microsomal stability assays The tracer [^18F][A]-d2 or [^18F][A] was dissolved in potassium phosphate (Kpi) buffer (100 mM) at concentration 500-600 μCi/mL. The non-radioactive 7 and 10 were dissolved in Kpi buffer at 10 μM concentration. The reaction vessel was charged with human or mouse liver microsome suspension (12.5 μL, 20 mg/mL) followed by Kpi buffer (388 μL, 10 mM), NADPH (50 μL, 10 mM) and incubated at 37° C. for 5-10 min. A solution of the radioactive [^18F][A]-d2 or [^18F][A] (50 μL, […]) or non-radioactive 7 or 8 (50 μL, 10 μM) were added to the reaction vessel and the mixture was incubated at 37° C. Aliquots (50 μL) of the reaction mixture were taken at 5, 15 and 45 minutes post addition of the tested compound, mixed with ice-cold acetonitrile (100 μL) and centrifuged. The supernatant was analyzed by LCMS (System E). The radiolabeled tracers [^18F][A] and [^18F][A]-d2 (n=3) were incubated with human, rhesus or mouse liver microsome suspension with or without NADPH at 37° C. and the mixture was analyzed for a presence of radioactive metabolites at 5, 15 and 45 min. In the presence of mouse and rhesus liver microsomes, both the [^18F][A] and [^18F][A]-d2 metabolized rapidly to ^18F-fluoride (retention time (rt)=0.38 min), and two radioactive metabolites M2 and M1 (rt=1.2 and 1.4 min). […]

[3] = Microsomal stability assay, human liver microsomes; type: in vitro ADME; details: radiolabeled, 45 min incubation, n=3
Method: Microsomal stability assays The tracer [^18F][A]-d2 or [^18F][A] was dissolved in potassium phosphate (Kpi) buffer (100 mM) at concentration 500-600 μCi/mL. The non-radioactive 7 and 10 were dissolved in Kpi buffer at 10 μM concentration. The reaction vessel was charged with human or mouse liver microsome suspension (12.5 μL, 20 mg/mL) followed by Kpi buffer (388 μL, 10 mM), NADPH (50 μL, 10 mM) and incubated at 37° C. for 5-10 min. A solution of the radioactive [^18F][A]-d2 or [^18F][A] (50 μL, […]) or non-radioactive 7 or […] (50 μL, 10 μM) were added to the reaction vessel and the mixture was incubated at 37° C. […] The supernatant was analyzed by LCMS (System E).

- reduction in bone uptake versus [18F][A] ([1]; in vivo PET): ~54%
- uptake in liver and kidneys, comparison of the two tracers ([1]; n=6): indistinguishable
- bone uptake ([1]; n=6, 30-45 min post tracer injection): 14.3±1.7 % ID/g
- peak uptake in brain ([1]; n=6, i.v., dynamic PET): 7.4±2.2 % ID/g
- stability of parent compound compared with mouse liver microsomes [2]: slightly more stable
- fraction attributed to parent compound [3]: 91.7±0.21% and 67.1±6.3%
Structure (SMILES): [2H]C([2H])([18F])CC1CCN(c2ccn3c(n2)nc2ccccc23)CC1 [[^18F][A]-d2, 1,1-dideutero-2-(1-(benzo[4,5]imidazo[1,2-a]pyrimidine-2-yl)piperidin-4-yl)-1-[^18F]fluoroethane]
